The test system of assay [1] is Staphlococcus aureus. In words: Staphlococcus aureus bacterial cultures (plate, clear areas). Format: cell-based. The conditions noted are these: 150 μL beads or 10 mg tobramycin disc on plate. As to the method:
Staphlococcus aureus bacterial cultures were performed in the microbiology department of Hahnemann University Hospital. On each plate 150 μL of control beads, 150 μL, of antibiotic beads and a 10 mg tobramycin disc were placed in order to see any bactericidal activity.

Assay [2] deals with bacterial strains cultured directly from clinically retrieved gentamicin-loaded bone cement. The conditions noted are these: cited from earlier work.

Turning to `NC[C@H]1O[C@H](O[C@H]2[C@H](O)[C@@H](O[C@H]3O[C@H](CO)[C@@H](O)[C@H](N)[C@H]3O)[C@H](N)C[C@@H]2N)[C@H](N)C[C@@H]1O` [tobramycin disc, tobramycin], the “bactericidal activity (clear areas indicating lack of bacterial growth)” value in assay [1] was “clear areas present”. In the case of gentamicin, the gentamicin resistant strains in assay [2] was 19 of 28.

The values above are taken from patent publication US20100178250A1, “Method of Local Delivery of Bioactive and Diagnostic Agents Using Magnetizable Bone Cement” (Philadelphia Health & Education Corporation, priority 2006, published 2010).
